Patent US10626092B2, “Polymorphic forms of 3-[(2-butyl-1-(2-diethylamino-ethyl)-1H-benzoimidazol-5-yl]-N-hydroxy-acrylamide and uses thereof” (MEI PHARMA, INC., priority 2016, dated 2020)
Structures can show the parent of a compound that is named as a salt. One block for each compound: values may come before it.

What was measured:
Format in all cases: physicochemical
[1] = Physical stability under accelerated aging conditions (40° C./70% RH), physical form re-determined by HT-XRPD; details: physical stability under accelerated aging conditions (40° C./70% RH) for 48 hours
Experimental: Solids were analyzed for their physical stability under accelerated aging conditions (40° C./70% RH) for 48 hours. After the exposure, the physical form was determined again by HT-XRPD analysis. The physico-chemical characterization of the forms was done by TGMS analysis to determine the solvation state of the form and thermal events and by DSC analysis to confirm the thermal events observed in the SDTA signal of the TGA. (See Examples for details.)
Suspensions of 3-[2-butyl-1-(2-diethylamino-ethyl)-1H-benzoimidazol-5-yl]-N-hydroxy-acrylamide dihydrochloride monohydrate (Form 1) and 2.5 hydrate (Form 3) were prepared in 12 process relevant solvent systems. The suspensions were cycled between 5° C. and 50° C. followed by aging at 25° C. for 72 hours. […] Upon completion of the incubation time, the solids were collected, dried under ambient conditions and dried under deep vacuum before being analyzed by HT-XRPD. All the measured solids were exposed to accelerated ageing conditions (2 days at 40° C./70% RH) followed by re-analysis by HT-XRPD.
Long-term slurry conversion experiments were carried out by preparing suspensions of 3-[2-butyl-1-(2-diethylamino-ethyl)-1H-benzoimidazol-5-yl]-N-hydroxy-acrylamide dihydrochloride 2.5 hydrate (Form 3) and monohydrate (Form 1) in 12 different solvents and solvent mixtures. Approximately 30 mg of the specific form was dosed in a standard HPLC vial and aliquots of 100 μL of solvent until a suspension was formed. The suspensions were stirred for 2 weeks at room temperature and for 1 week at 50° C. The solids were isolated from the mother liquor and analyzed by HT-XRPD after mild drying under ambient conditions (ambient) and after thorough drying under vacuum (vacuum). All the solids were exposed to accelerated ageing conditions (2 days at 40° C./70% RH) and re-analyzed by HT-XRPD.
(§1) The competitive slurry experiments were performed in ethanol/water mixtures and methanol/water mixtures within a water activity range of 0-0.2. Approximately 50 mg of each pracinostat dihydrochloride solid form 2.5 hydrate and monohydrate were solid dosed in 1.8 mL HPLC vials. Aliquots of 100 μL of the different water mixtures were added until about half of the amount of solid was in solution. Subsequently, the vials were stirred for one week at 5° C., 21° C. and 50° C. Upon completion of the equilibration time, the solids were separated from the liquids by centrifugation. The solids were dried under ambient conditions (ambient) and dried under vacuum (vacuum) before HT-XRPD analysis. All solid samples were exposed to accelerated gaining conditions (40° C. and 70% RH) for two days (AAC). The water content in the liquid phase was determined Karl Fischer analysis.

[2] = Competitive slurry conversion (thermodynamic stability) of Form 1 and Form 3; details: ethanol/water, one week slurry
Experimental: as §1, with “Approximately 50 mg of each solid form were solid dosed in a standard HPLC vial followed by solvent addition. The competitive” for “The competitive”, “in solution. […] Upon completion” for “in solution. Subsequently, the vials were stirred for one week at 5° C., 21° C. and 50° C. Upon completion”

[3] = Moisture sorption study (DVS analysis); details: for solid form recovered after DVS: HT-XRPD
Experimental: A moisture sorption study was performed to investigate the physical stability of 3-[2-butyl-1-(2-diethylamino-ethyl)-1H-benzoimidazol-5-yl]-N-hydroxy-acrylamide dihydrochloride 2.5 hydrate upon exposure to several relative humidity profiles. HT-XRPD analyses were performed on the solid material obtained after the DVS analyses. The analytical method is described herein.
Differences in hygroscopicity (moisture uptake) of the various forms of a solid material provided a measure of their relative stability at increasing relative humidity. Moisture sorption isotherms of small samples were obtained using a DVS-1 system from Surface Measurement Systems (London, UK); this instrument is suitable for use with as little as a few milligrams of sample, with an accuracy of 0.1 μg. Several humidity profile were applied as described in each individual experiment. Steps consisted of 10% RH. Weight equilibration per step was set with a minimum holding time of 1 hour (10% relative humidity step). At the end of the DVS experiments, the recovered solid material was measured by HT-XRPD.

[4] = Variable temperature XRPD; details: 25° C. to 130° C.
Experimental: To investigate the phase interconversions upon temperature exposure, a variable temperature XRPD analysis on 3-[2-butyl-1-(2-diethylamino-ethyl)-1H-benzoimidazol-5-yl]-N-hydroxy-acrylamide dihydrochloride 2.5 hydrate was performed. The experiment was run between 25° C. to 130° C. with cooling back to 25° C. at the end. […] After reaching a temperature of 130° C., the material was cooled back to 25° C.
A variable temperature XRPD experiment with 3-[2-butyl-1-(2-diethylamino-ethyl)-1H-benzoimidazol-5-yl]-N-hydroxy-acrylamide dihydrochloride monohydrate was conducted to investigate the solid form conversion that occurred upon heating. The experiment was run between 25° C. to 143° C. followed by cooling to 25° C., reheating to 155° C. and then cooling again to 25° C. (see FIG. 19).
For variable humidity and temperature experiments the ANSYCO HT chamber was used, installed within the D8 Advance system diffractometer (Bruker) designed with Brag-Brentano geometry and equipped with LynxEye solid state detector. The radiation used for collecting the data was CuKα1 (λ=1.54056 Å) monochromatized by germanium crystal. The material was placed on a fixed sample holder that was mounted inside the chamber.
VT-XRPD: The temperature variation rate was 10° C./min and the equilibration time, prior to starting the data collection at each temperature, was 8 min. The patterns were collected in the range 4-41°2θ, with a step of 0.01573°2θ and measuring time per step of 1 sec. The data collection time, per temperature, was 40 min.

Thermocycling studies = assay: Thermocycling studies
Experimental: The suspensions were cycled between 5° C. and 50° C. followed by aging at 25° C. for 72 hours. […] Upon completion of the incubation time, the solids were collected, dried under ambient conditions and dried under deep vacuum before being analyzed by HT-XRPD. All the measured solids were exposed to accelerated ageing conditions (2 days at 40° C./70% RH) followed by re-analysis by HT-XRPD.

[5] = Moisture sorption study (DVS analysis); details: DVS; hydrate
[6] = Desolvation studies: equilibration at 125° C. in high boiling point solvents; details: two days; for Form in Ambient AAC: then accelerated aging conditions
Experimental: Using solvent equilibration of hydrates in high boiling point solvents has been reported as a method to obtaining desolvated forms. […] The experiments were started with approximately 50 mg of material and 100 μL of solvent. After equilibration, the solids were isolated from the solutions by centrifugation. The solids were allowed to dry under ambient conditions before HT-XRPD analysis was performed. The wet solids were analyzed by HT-XRPD immediately to avoid hydration under ambient conditions or under vacuum.

[7] = Long-term slurry conversion experiments; details: drying the solids under vacuum; converts to 2.5 hydrate Form 3
Experimental: Approximately 30 mg of the specific form was dosed in a standard HPLC vial and aliquots of 100 μL of solvent until a suspension was formed. […] The solids were isolated from the mother liquor and analyzed by HT-XRPD after mild drying under ambient conditions (ambient) and after thorough drying under vacuum (vacuum). All the solids were exposed to accelerated ageing conditions (2 days at 40° C./70% RH) and re-analyzed by HT-XRPD.

[8] = four sorption-desorption cycles 0-95-0% RH

Stability ([1]; dihydrochloride): Unstable
SMILES: CCCCc1nc2cc(/C=C/C(=O)NO)ccc2n1CCN(CC)CC [Form 5, 3-[2-butyl-1-(2-diethylamino-ethyl)-1H-benzoimidazol-5-yl]-N-hydroxy-acrylamide dihydrochloride]

water content of the solvent system at which the form is the most stable form ([2]; 50° C. (elevated temperatures)): below 1.5%
water content of the solvent system at which the form is the most stable / obtained form ([2]; ambient conditions): below 2.5%
Stability [1]: Unstable
SMILES: CCCCc1nc2cc(/C=C/C(=O)NO)ccc2n1CCN(CC)CC [Form 9, 3-[2-butyl-1-(2-diethylamino-ethyl)-1H-benzoimidazol-5-yl]-N-hydroxy-acrylamide dihydrochloride anhydrous]

physical stability under ambient conditions ([3]; form appearing at 0% RH, converts to 2.5 hydrate (Form 3)): physically unstable
Stability ([1]; dihydrochloride hemihydrate): Unstable
SMILES: CCCCc1nc2cc(/C=C/C(=O)NO)ccc2n1CCN(CC)CC [Form 10, 3-[2-butyl-1-(2-diethylamino-ethyl)-1H-benzoimidazol-5-yl]-N-hydroxy-acrylamide dihydrochloride hemihydrate]

Stability ([1]; hydrate): Unstable
SMILES: CCCCc1nc2cc(/C=C/C(=O)NO)ccc2n1CCN(CC)CC [Form 4, 3-[2-butyl-1-(2-diethylamino-ethyl)-1H-benzoimidazol-5-yl]-N-hydroxy-acrylamide dihydrochloride 1.5 hydrate]

hygroscopicity ([3]; DVS, hydrate): non-hygroscopic
gradual loss of water ([3]; constant 0% RH for 18 hours, in the first 5 hours): 8%
mass loss at 0% RH [3, 8]: about 2%
relative humidity below which the water is gradually lost [3, 8]: below 15 % RH
relative humidity values at which the form does not change [3, 8]: 25-95%
water loss between 5-0% RH ([3]; two sorption-desorption cycles 45-95-0-95-0-45% RH): about 2%
solid form recovered after DVS ([3]; two sorption-desorption cycles 45-95-0-95-0-45% RH, hydrate): 2.5 hydrate was recovered
temperature at which conversion to a new solid form was initially observed [4]: 60 °C
temperature at which conversion to the new solid form was completed [4]: 70 °C
temperature at which second conversion (to Form 5) was completed [4]: 110 °C
temperature at which second conversion (to Form 5) was observed [4]: 100 °C
water content of the solvent system at which the form is the most stable / obtained form ([2]; 5° C. (below ambient), hydrate): above 2%
water content of the solvent system at which the form is the most stable / obtained form ([2]; ambient conditions, hydrate): above 3%
solid form after thermocycling (Thermocycling studies; ethanol, absolute or extra dry, hydrate): converted to the monohydrate Form 1
solid form after thermocycling (Thermocycling studies; methanol, no water present): converts to the monohydrate Form 1
hygroscopicity [5]: not hygroscopic
Form in Ambient ([6]; Anisole): Mono
Form in Ambient AAC ([6]; Anisole): 2.5
Form in Ambient ([6]; Cumene): Mono
Form in Ambient AAC ([6]; Cumene, hydrate): 2.5 + Mono
Form in Ambient ([6]; N-Methyl-2-pyrrolidone, hydrate): Mono
Form in Ambient AAC ([6]; N-Methyl-2-pyrrolidone): 2.5
Form in Ambient ([6]; p-Xylene): Mono
Form in Ambient AAC ([6]; p-Xylene): 2.5
Stability ([1]; hydrate): Stable
SMILES: CCCCc1nc2cc(/C=C/C(=O)NO)ccc2n1CCN(CC)CC [Form 3, 3-[2-butyl-1-(2-diethylamino-ethyl)-1H-benzoimidazol-5-yl]-N-hydroxy-acrylamide dihydrochloride 2.5 hydrate]
solid form recovered after DVS ([3]; 0% RH for 18 hours): converted to a new solid form designated Form 6
relative stability of the form (Thermocycling studies; thermocycling in ethanol/water mixtures): most stable form in a wide range of ethanol/water mixtures
relative stability of the form (Thermocycling studies; thermocycling in methanol/water mixtures): most stable form in a wide range of methanol/water mixtures

physical stability upon drying [7]: physically unstable
Stability ([1]; dihydrochloride trihydrate): Unstable
SMILES: CCCCc1nc2cc(/C=C/C(=O)NO)ccc2n1CCN(CC)CC [Form 2, 3-[2-butyl-1-(2-diethylamino-ethyl)-1H-benzoimidazol-5-yl]-N-hydroxy-acrylamide dihydrochloride trihydrate]
